From patent US20150307938A1, “METHOD TO IDENTIFY A NOVEL CLASS OF IMMUNOLOGIC ADJUVANTS” (Lancell, L.L.C., priority 2011, published 2015)

System: skin
Assay: Affymetrix microarray of skin, DBP-4 hr and analogs vs. untreated; gene selection by log-2 fold change, Wilcoxon, Kendall tau (Tables 8, 9)
Assay type: in vivo, mouse

With `CCCCOC(=O)c1ccccc1C(=O)OCCCC` [DBP, dibutylphthalate] the “Wilcoxon: Pigp” value (gene Pigp, NM_019543_at, DBP-4 hr vs. untreated) was “No”, the “Kendall: Pigp” value (gene Pigp, NM_019543_at, gene expression vs. output) was “Yes” and the “Wilcoxon: Pkp4” value (gene Pkp4, NM_026361_at, DBP-4 hr vs. untreated) was “No”. For the same compound, the “Kendall: Pkp4” value (gene Pkp4, NM_026361_at, gene expression vs. output) was “Yes”, the “Wilcoxon: Plk3” value (gene Plk3, NM_013807_at, DBP-4 hr vs. untreated) was “No” and the “Kendall: Plk3” value (gene Plk3, NM_013807_at, gene expression vs. output) was “Yes”. For the same compound, the “Wilcoxon: Polr2g” value (gene Polr2g, NM_026329_at, DBP-4 hr vs. untreated) was “No”, the “Kendall: Polr2g” value (gene Polr2g, NM_026329_at, gene expression vs. output) was “Yes” and the “Wilcoxon: Pparg” value (gene Pparg, NM_011146_at, DBP-4 hr vs. untreated) was “No”. For the same compound, the “Kendall: Pparg” value (gene Pparg, NM_011146_at, gene expression vs. output) was “Yes”, the “Wilcoxon: Ppp1r7” value (gene Ppp1r7, NM_023200_at, DBP-4 hr vs. untreated) was “No” and the “Kendall: Ppp1r7” value (gene Ppp1r7, NM_023200_at, gene expression vs. output) was “Yes”. For the same compound, the “Wilcoxon: Prokr1” value (gene Prokr1, NM_021381_at, DBP-4 hr vs. untreated) was “No”, the “Kendall: Prokr1” value (gene Prokr1, NM_021381_at, gene expression vs. output) was “Yes” and the “Wilcoxon: Ptpn1” value (gene Ptpn1, NM_011201_at, DBP-4 hr vs. untreated) was “No”. For the same compound, the “Kendall: Ptpn1” value (gene Ptpn1, NM_011201_at, gene expression vs. output) was “Yes”, the “Wilcoxon: Rabgef1” value (gene Rabgef1, NM_019983_at, DBP-4 hr vs. untreated) was “No” and the “Kendall: Rabgef1” value (gene Rabgef1, NM_019983_at, gene expression vs. output) was “Yes”. For the same compound, the “Wilcoxon: Rai12” value (gene Rai12, NM_018740_at, DBP-4 hr vs. untreated) was “No”, the “Kendall: Rai12” value (gene Rai12, NM_018740_at, gene expression vs. output) was “Yes” and the “Wilcoxon: Rbbp6” value (gene Rbbp6, NM_011247_at, DBP-4 hr vs. untreated) was “No”. The “Kendall: Rbbp6” value (gene Rbbp6, NM_011247_at, gene expression vs. output) was “Yes”, the “Wilcoxon: Rpl7l1” value (gene Rpl7l1, NM_025433_at, DBP-4 hr vs. untreated) was “No” and the “Kendall: Rpl7l1” value (gene Rpl7l1, NM_025433_at, gene expression vs. output) was “Yes”. The “Wilcoxon: Sema4d” value (gene Sema4d, NM_013660_at, DBP-4 hr vs. untreated) was “No”, the “Kendall: Sema4d” value (gene Sema4d, NM_013660_at, gene expression vs. output) was “Yes” and the “Wilcoxon: Siae” value (gene Siae, NM_011734_at, DBP-4 hr vs. untreated) was “No”. For the same compound, the “Kendall: Siae” value (gene Siae, NM_011734_at, gene expression vs. output) was “Yes”, the “Wilcoxon: Sirt1” value (gene Sirt1, NM_019812_at, DBP-4 hr vs. untreated) was “No” and the “Kendall: Sirt1” value (gene Sirt1, NM_019812_at, gene expression vs. output) was “Yes”. For the same compound, the “Wilcoxon: Slc9a3r1” value (gene Slc9a3r1, NM_012030_at, DBP-4 hr vs. untreated) was “No”, the “Kendall: Slc9a3r1” value (gene Slc9a3r1, NM_012030_at, gene expression vs. output) was “Yes” and the “Wilcoxon: Slc30a4” value (gene Slc30a4, NM_011774_at, DBP-4 hr vs. untreated) was “No”. The “Kendall: Slc30a4” value (gene Slc30a4, NM_011774_at, gene expression vs. output) was “Yes”, the “Wilcoxon: Slc35a1” value (gene Slc35a1, NM_011895_at, DBP-4 hr vs. untreated) was “No” and the “Kendall: Slc35a1” value (gene Slc35a1, NM_011895_at, gene expression vs. output) was “Yes”. For the same compound, the “Wilcoxon: Smarcb1” value (gene Smarcb1, NM_011418_at, DBP-4 hr vs. untreated) was “No”, the “Kendall: Smarcb1” value (gene Smarcb1, NM_011418_at, gene expression vs. output) was “Yes” and the “Wilcoxon: Srsf6” value (gene Srsf6, NM_026499_at, DBP-4 hr vs. untreated) was “No”. For the same compound, the “Kendall: Srsf6” value (gene Srsf6, NM_026499_at, gene expression vs. output) was “Yes”, the “Wilcoxon: Stx17” value (gene Stx17, NM_026343_at, DBP-4 hr vs. untreated) was “No” and the “Kendall: Stx17” value (gene Stx17, NM_026343_at, gene expression vs. output) was “Yes”. For the same compound, the “Wilcoxon: Tmed1” value (gene Tmed1, NM_010744_at, DBP-4 hr vs. untreated) was “No”, the “Kendall: Tmed1” value (gene Tmed1, NM_010744_at, gene expression vs. output) was “Yes” and the “Wilcoxon: Tmem208” value (gene Tmem208, NM_025486_at, DBP-4 hr vs. untreated) was “No”. The “Kendall: Tmem208” value (gene Tmem208, NM_025486_at, gene expression vs. output) was “Yes”, the “Wilcoxon: Tnfrsf1a” value (gene Tnfrsf1a, NM_011609_at, DBP-4 hr vs. untreated) was “No” and the “Kendall: Tnfrsf1a” value (gene Tnfrsf1a, NM_011609_at, gene expression vs. output) was “Yes”. For the same compound, the “Wilcoxon: Tnfrsf9” value (gene Tnfrsf9, NM_011612_at, DBP-4 hr vs. untreated) was “No”, the “Kendall: Tnfrsf9” value (gene Tnfrsf9, NM_011612_at, gene expression vs. output) was “Yes” and the “Wilcoxon: Trappc2l” value (gene Trappc2l, NM_021502_at, DBP-4 hr vs. untreated) was “No”. For the same compound, the “Kendall: Trappc2l” value (gene Trappc2l, NM_021502_at, gene expression vs. output) was “Yes”, the “Wilcoxon: Tril” value (gene Tril, NM_025817_at, DBP-4 hr vs. untreated) was “No” and the “Kendall: Tril” value (gene Tril, NM_025817_at, gene expression vs. output) was “Yes”. For the same compound, the “Wilcoxon: Trim12a” value (gene Trim12a, NM_023835_at, DBP-4 hr vs. untreated) was “No”, the “Kendall: Trim12a” value (gene Trim12a, NM_023835_at, gene expression vs. output) was “Yes” and the “Wilcoxon: Trip4” value (gene Trip4, NM_019797_at, DBP-4 hr vs. untreated) was “No”. The “Kendall: Trip4” value (gene Trip4, NM_019797_at, gene expression vs. output) was “Yes”, the “Wilcoxon: Trp63” value (gene Trp63, NM_011641_at, DBP-4 hr vs. untreated) was “No” and the “Kendall: Trp63” value (gene Trp63, NM_011641_at, gene expression vs. output) was “Yes”. The “Wilcoxon: Trpv2” value (gene Trpv2, NM_011706_at, DBP-4 hr vs. untreated) was “No”, the “Kendall: Trpv2” value (gene Trpv2, NM_011706_at, gene expression vs. output) was “Yes” and the “Wilcoxon: Tsn” value (gene Tsn, NM_011650_at, DBP-4 hr vs. untreated) was “No”. The “Kendall: Tsn” value (gene Tsn, NM_011650_at, gene expression vs. output) was “Yes”, the “Wilcoxon: Ufc1” value (gene Ufc1, NM_025388_at, DBP-4 hr vs. untreated) was “No” and the “Kendall: Ufc1” value (gene Ufc1, NM_025388_at, gene expression vs. output) was “Yes”. For the same compound, the “Wilcoxon: Ulk2” value (gene Ulk2, NM_013881_at, DBP-4 hr vs. untreated) was “No”, the “Kendall: Ulk2” value (gene Ulk2, NM_013881_at, gene expression vs. output) was “Yes” and the “Wilcoxon: Wbp1” value (gene Wbp1, NM_016757_at, DBP-4 hr vs. untreated) was “No”. For the same compound, the “Kendall: Wbp1” value (gene Wbp1, NM_016757_at, gene expression vs. output) was “Yes”, the “Wilcoxon: Zfp68” value (gene Zfp68, NM_013844_at, DBP-4 hr vs. untreated) was “No” and the “Kendall: Zfp68” value (gene Zfp68, NM_013844_at, gene expression vs. output) was “Yes”. The “Wilcoxon: Zfp90” value (gene Zfp90, NM_011764_at, DBP-4 hr vs. untreated) was “No”, the “Kendall: Zfp90” value (gene Zfp90, NM_011764_at, gene expression vs. output) was “Yes” and the “Wilcoxon: Zkscan3” value (gene Zkscan3, NM_023685_at, DBP-4 hr vs. untreated) was “No”. The “Kendall: Zkscan3” value (gene Zkscan3, NM_023685_at, gene expression vs. output) was “Yes”, the “Wilcoxon: Zkscan6” value (gene Zkscan6, NM_026107_at, DBP-4 hr vs. untreated) was “No” and the “Kendall: Zkscan6” value (gene Zkscan6, NM_026107_at, gene expression vs. output) was “Yes”. For the same compound, the “1110032A04Rik NM_133675_at ≧2-Fold change” value (mouse, in vivo) was “No”, the “1600029D21Rik (NM_029639_at) ≧2-Fold change” value (mouse, in vivo) was “Yes” and the “2010002N04Rik (NM_134133_at) ≧2-Fold change” value (mouse, in vivo) was “Yes”. For the same compound, the “2310016C08Rik (NM_023516_at) ≧2-Fold change” value (mouse, in vivo) was “Yes”, the “2510002D24Rik NM_001033164_at ≧2-Fold change” value (mouse, in vivo) was “No” and the “2510009E07Rik NM_001001881_at ≧2-Fold change” value (mouse, in vivo) was “No”. The “2610528A11Rik XR_105647_at ≧2-Fold change” value (mouse, in vivo) was “No”, the “1500015010Rik NM_024283_at ≧2-Fold change” value (mouse, in vivo) was “No” and the “1810011010Rik (NM_026931_at) ≧2-Fold change” value (mouse, in vivo) was “Yes”. For the same compound, the “3110079015Rik NM_028473_at ≧2-Fold change” value (mouse, in vivo) was “No” and the “A2m NM_175628_at ≧2-Fold change” value (mouse, in vivo) was “No”.
